Converted amounts (≈) assume the structure as drawn. Like-named read-outs stand apart in the source and are kept apart here.
Tests used:
[1] = tested on: Candida duobushaemulonii AR Bank #391; experiment: MIC determination by in vitro antifungal assay; assay type: cell-based
Protocol: (§1) The antifungal agent amphotericin B (AmB) was purchased from VWR (Radnor PA, USA). AmB was dissolved in DMSO at a final concentration of 5 mg/mL and was stored at −20° C., protected from light. Candida albicans American Type Culture Collection (ATCC) 10231 (strain A), C. albicans ATCC 64124 (B), and C. albicans ATCC MYA-2876 (C) were obtained from Utah State University. C. albicans ATCC 90819 (D), C. albicans ATCC MYA-2310 (E), C. albicans ATCC MYA-1237 (F), C. albicans ATCC MYA-1003 (G), Candida glabrata ATCC 2001 (H), Candida krusei ATCC 6258 (I), Candida parapsilosis ATCC 22019 (J), Cryptococcus neoformans ATCC MYA-895 (M), Aspergillus terreus ATCC MYA-3633 (N), and Aspergillus flavus ATCC MYA-3631 (0) were obtained from the American Type Culture Collection (ATCC; Manassas, VA, USA). Aspergillus nidulans ATCC 38163 (P) was obtained from University of Kentucky. Clinically derived Aspergillus fumigatus NRRL 163 (Q), A. fumigatus NRRL 5109 (R), and A. fumigatus NRRL 6113 (S) were obtained from Northern Regional Research Laboratory (NRRL). Candida auris 384 (K), C. auris 390 (L), and fungal strains 381-400 (including 10 C. auris (AR Bank #381-390), 3 Candida duobushaemulonii (AR Bank #391, AR Bank #392, and AR Bank #394), 2 Candida haemulonii (AR Bank #393 and AR Bank #395), 1 Kodameae ohmeri (AR Bank #396), 1 C. krusei (AR Bank #397), 1 Candida lusitaniae (AR Bank #398), and 2 Saccharomyces cerevisiae strains (AR Bank #399 and AR Bank #400)) were part of a larger fungal library from the AR Bank maintained by the Centers for Disease Control and Prevention (CDC; Atlanta, GA, USA). Filamentous fungi and yeasts were cultivated at 35° C. in RPMI 1640 medium (with L-glutamine, without sodium bicarbonate, Sigma-Aldrich, St. Louis, MO) buffered to a pH of 7.0 with 0.165 M morpholinepropanesulfonic acid (MOPS) buffer (Sigma-Aldrich). For cytotoxicity assays, HepG2 and the mouse macrophage cell line J774A.1 were obtained from University of Kentucky. The human embryonic kidney cell line, HEK-293, was bought from the ATCC. Mammalian cells were grown in Dulbecco's Modified Eagle's Medium (DMEM) (from VWR) with 10% fetal bovine serum (FBS) (from VWR) and 1% Pen/Strep (from ATCC). Cell lines were cultured at 37° C. with 5% CO2 and passaged by trypsinization with 0.05% trypsin: 0.53 mM EDTA (from Sigma-Aldrich).
(§2) From the actively growing yeast culture, 100 µL were then transferred to 900 μL of RPMI 1640 medium and re-adjusted to achieve OD600 of 0.12 (˜1×10^6 CFU/mL). The cell suspension was further diluted to achieve 1:100 in RPMI 1640 medium.

[2] = tested on: Candida duobushaemulonii AR Bank #392; experiment: MIC determination by in vitro antifungal assay; assay type: cell-based
Protocol: as §1, §2

[3] = tested on: Candida duobushaemulonii AR Bank #394; experiment: MIC determination by in vitro antifungal assay; assay type: cell-based
Protocol: as §1, §2

[4] = tested on: Candida haemulonii AR Bank #393; experiment: MIC determination by in vitro antifungal assay; assay type: cell-based
Protocol: as §1, §2

[5] = tested on: Candida haemulonii AR Bank #395; experiment: MIC determination by in vitro antifungal assay; assay type: cell-based
Protocol: as §1, §2

[6] = tested on: Candida krusei AR Bank #397; experiment: MIC determination by in vitro antifungal assay; assay type: cell-based; conditions: Candida strain AR Bank #397
Protocol: as §1, §2

[7] = tested on: Candida lusitaniae AR Bank #398; experiment: MIC determination by in vitro antifungal assay; assay type: cell-based; conditions: Candida strain AR Bank #398
Protocol: as §1, §2

[8] = tested on: Kodameae ohmeri AR Bank #396; experiment: MIC determination by in vitro antifungal assay; assay type: cell-based; conditions: strain AR Bank #396
Protocol: as §1, §2

[9] = tested on: Saccharomyces cerevisiae AR Bank #399; experiment: MIC determination by in vitro antifungal assay; assay type: cell-based
Protocol: as §1, §2

[10] = tested on: HepG2 cells; experiment: In vitro cytotoxicity assay (resazurin); assay type: cell-based; conditions: up to 31.3 j·tg mL^−1, 24 h
Protocol: The antifungal agent amphotericin B (AmB) was purchased from VWR (Radnor PA, USA). AmB was dissolved in DMSO at a final concentration of 5 mg/mL and was stored at −20° C., protected from light. […] For cytotoxicity assays, HepG2 and the mouse macrophage cell line J774A.1 were obtained from University of Kentucky. […] Mammalian cells were grown in Dulbecco's Modified Eagle's Medium (DMEM) (from VWR) with 10% fetal bovine serum (FBS) (from VWR) and 1% Pen/Strep (from ATCC). Cell lines were cultured at 37° C. with 5% CO2 and passaged by trypsinization with 0.05% trypsin: 0.53 mM EDTA (from Sigma-Aldrich).
Cytotoxicity assays were performed as previously described with slight modifications.^3 HepG2, J774A.1, and HEK-293 cells were first thawed from frozen stocks kept in liquid N2 and grown in Dulbecco's modified Eagles's medium (DMEM) containing 10% fetal bovine serum (FBS) and 1% Pen/Strep. […] The 96-well plates were incubated 37° C. with 5% CO2 overnight. […] The medium in the 96-well plates containing the cells was aspirated and replaced by fresh DMEM (100 μL). […] The 96-well plates were further incubated for 24 h at 37° C. with 5% CO2 overnight. To evaluate cell survival, each well was treated with 10 μL (2 mM) of resazurin sodium salt (Sigma-Aldrich, St. Louis, MO, USA) and was incubated for another 6 h. Metabolically active cells can convert resazurin to the highly fluorescent dye, resorufin, and be detected at ?560 excitation and λ590 emission using a SpectraMax M5 plate reader (Molecular Devices, San Jose, CA, USA). Triton X-100® (1%, v/v) was used as positive control; the negative control consisted of cells treated with the delivery vehicle (0.05% DMSO), and the blank control was only the culture medium with 0.05% DMSO without cells. The experiments were performed in quadruplicate.

[11] = tested on: panel of ten C. auris strains (AR Bank #381-390); experiment: MIC determination, summary over the C. auris panel; assay type: cell-based, Candida auris; conditions: Candidozyma auris; against all ten C. auris strains tested (AR Bank #381-390)
Protocol: as §1, §2

[12] = tested on: ten other fungal strains (AR Bank #391-400); experiment: MIC determination, summary over ten additional fungal strains; assay type: cell-based; conditions: read-out: MIC range
Protocol: as §1, §2

[13] = Candidozyma duobushaemuli, read-out: MIC
[14] = Candidozyma haemuli, read-out: MIC
[15] = Pichia kudriavzevii, read-out: MIC
[16] = Clavispora lusitaniae, read-out: MIC

SMILES	MIC [1] [μg/mL^−1]	MIC [2] [μg/mL^−1]	MIC [3] [μg/mL^−1]	MIC [4] [μg/mL^−1]	MIC [5] [μg/mL^−1]	MIC [6] [μg/mL^−1]	MIC [7] [μg/mL^−1]	MIC [8] [μg/mL^−1]	MIC [9] [μg/mL^−1]	MIC [1, 13] [µg/mL]	MIC [2, 13] [µg/mL]	MIC [3, 13] [µg/mL]	MIC [4, 14] [µg/mL]	MIC [5, 14] [µg/mL]	MIC [6, 15] [µg/mL]	MIC [7, 16] [µg/mL]	MIC ([8]; read-out: MIC) [µg/mL]	MIC ([9]; read-out: MIC) [µg/mL]	MIC [11] [µg/mL]	MIC [12] [µg/mL]	further results
C[C@@H]1[C@H](O)[C@@H](C)/C=C/C=C/C=C/C=C/C=C/C=C/C=C/[C@H](O[C@@H]2O[C@H](C)[C@@H](O)[C@H](N)[C@@H]2O)C[C@@H]2O[C@](O)(C[C@@H](O)C[C@@H](O)[C@H](O)CC[C@@H](O)C[C@@H](O)CC(=O)O[C@H]1C)C[C@H](O)[C@H]2C(=O)O [AmB, amphotericin B, reference compound]	7.8	7.8	0.98	13.6	3.9	0.49	3.9	1.95	15.6	–	–	–	–	–	–	–	–	–	–	–	–
O=C(NNc1cccc(F)c1)c1ccccn1 [Compound 2a]	0.49	0.24	0.49	0.12	≤0.06	0.24	0.98	0.24	1.95	–	–	–	–	–	–	–	–	–	–	–	toxicity [10]: no toxicity
O=C(NNc1cccc(Cl)c1)c1ccccn1 [Compound 2b]	0.24	0.24	0.12	0.12	≤0.06	0.12	0.98	0.12	0.98	–	–	–	–	–	–	–	–	–	–	–	toxicity [10]: no toxicity
COc1cccc(NNC(=O)c2ccccn2)c1 [Compound 2c]	1.95	1.95	0.98	0.49	0.49	0.49	1.95	0.49	7.8	–	–	–	–	–	–	–	–	–	–	–	–
O=C(NNc1ccc(F)cc1)c1ccccn1 [Compound 2d]	–	–	–	–	–	–	–	–	–	0.49 (≈ 2.12 µM)	0.49 (≈ 2.12 µM)	0.24 (≈ 1.04 µM)	0.24 (≈ 1.04 µM)	0.12 (≈ 0.519 µM)	0.24 (≈ 1.04 µM)	1.95 (≈ 8.43 µM)	0.24 (≈ 1.04 µM)	3.9 (≈ 16.9 µM)	0.12 to 7.8 (≈ 0.519 to 33.7 µM)	0.06 to 7.8 (≈ 0.259 to 33.7 µM)	toxicity [10]: no toxicity
O=C(NNc1ccc(Cl)cc1)c1ccccn1 [Compound 2e]	0.98	0.98	0.49	0.49	0.12	0.24	0.98	0.24	0.98	–	–	–	–	–	–	–	–	–	–	–	–
COc1ccc(NNC(=O)c2ccccn2)cc1 [Compound 2f]	–	–	–	–	–	–	–	–	–	0.98 (≈ 4.03 µM)	0.98 (≈ 4.03 µM)	0.98 (≈ 4.03 µM)	0.49 (≈ 2.01 µM)	0.49 (≈ 2.01 µM)	0.49 (≈ 2.01 µM)	0.98 (≈ 4.03 µM)	0.49 (≈ 2.01 µM)	1.95 (≈ 8.02 µM)	0.12 to 7.8 (≈ 0.493 to 32.1 µM)	0.06 to 1.95 (≈ 0.247 to 8.02 µM)	–
O=C(NNc1cc(F)ccc1F)c1ccccn1 [Compound 2h]	–	–	–	–	–	–	–	–	–	0.49 (≈ 1.97 µM)	0.24 (≈ 0.963 µM)	0.24 (≈ 0.963 µM)	0.98 (≈ 3.93 µM)	0.24 (≈ 0.963 µM)	0.24 (≈ 0.963 µM)	0.49 (≈ 1.97 µM)	0.12 (≈ 0.482 µM)	1.95 (≈ 7.82 µM)	0.06 to 1.95 (≈ 0.241 to 7.82 µM)	0.06 to 1.95 (≈ 0.241 to 7.82 µM)	–
O=C(NNc1cc(Cl)cc(Cl)c1)c1ccccn1 [Compound 2j]	–	–	–	–	–	–	–	–	–	0.98 (≈ 3.47 µM)	0.98 (≈ 3.47 µM)	0.49 (≈ 1.74 µM)	0.24 (≈ 0.851 µM)	0.24 (≈ 0.851 µM)	0.49 (≈ 1.74 µM)	3.9 (≈ 13.8 µM)	0.49 (≈ 1.74 µM)	3.9 (≈ 13.8 µM)	0.12 to 7.8 (≈ 0.425 to 27.6 µM)	0.06 to 7.8 (≈ 0.213 to 27.6 µM)	–
O=C(NNc1ccc(F)cc1F)c1ccc(F)cn1 [Compound 3g]	–	–	–	–	–	–	–	–	–	–	–	–	–	–	–	–	–	–	0.12 to 7.8 (≈ 0.449 to 29.2 µM)	–	–
O=C(NNc1ccc(F)cc1)c1ccc(Br)cn1 [Compound 4d]	–	–	–	–	–	–	–	–	–	–	–	–	–	–	–	–	–	–	0.12 to 7.8 (≈ 0.387 to 25.2 µM)	–	–

From patent US20240425464A1, “Substituted Monohydrazides as Potent Antifungal Agents” (University of Kentucky Research Foundation, priority 2023, published 2024)
